Measured values as given in patent publication US6878751B1, “Administration of resveratrol to treat inflammatory respiratory disorders” (Imperial College of Science Technology and Medicine, priority 2000, dated 2005).

Experiments:
[1] = test system: patients resistant to existing pulmonary steroid therapy; assay: Resveratrol supplementation vs increasing steroid dose in steroid resistant asthma (Example 7); assay type: in vivo, human; details: oral or pulmonary resveratrol added to inhaled steroid
Excerpt: Instead of steroid naive chid asthmatic patients (children are chosen because of the increased gravity of systemic endocrine effects for children, but adults can be analogously studied) selected in Example 6, patients reesistant to existing pulmonary steroid therapy are selected. The study is otherwise analogous to the study in […], except that in the first two groups the oral or inhaled resveratrol supplements the inhaled steroid dose being administered prior to the beginning of the evaluation, while the third group has the dosage of inhaled steroid being administered prior to the study doubled. Alternatively the third group can receive oral prednisone in the appropriate systemic dose. The evaluation is otherwise performed identically to that in Example 6.

COPD patients = assay: Pulmonary resveratrol clinical evaluation in COPD (Example 9); assay type: in vivo, human; details: inhaled, 4, 8 or 20 mg/day
Method: Pulmonary administration of resveratrol for COPD may be evaluated by the method preceding in Example 8, using the inhaled doses specified in Example 4. Specifically the subgroups receive either 0 (placebo), 4, 8, or 20 mg/day resveratrol in inhaled doses of 0, 1, 2, or 5 mg administered 4 times daily for th duration of the study.

[2] = test system: IL-8 release, BEAS-2B cells; assay: IL-8 release (ELISA) in IL-1β stimulated BEAS-2B cells; assay type: cell-based; details: Homo sapiens, 1 ng/ml IL-1β, read-out: EC50 for inhibition of the release of IL-8
Method: The human airway epithelial cell line A549 may be employed to study resveratrol inhibition of the release of IL-8 (interleukin 8) and GM-CSF (granulocyte macrophage-colony stimulating factor) by a 1 ng/ml stimulation with IL-1β (interleukin 1β). A549 cells, BEAS-2B cells and 16HBE-16o^− cells were stimulated with 1 ng/ml levels of IL-1β in the presence of resveratrol.
Cells, including the A549 cells, were cultured in Dulbecco's modified Eagle's medium (DMEM) 10% (v/v) fetal calf serum (FCS), 100 μg/ml penicillin and 100 μg/ml streptomycin. IL-8 release was measured by commercially available ELISA kit (R&D Systems).

Patients with asthma = assay: Pulmonary resveratrol clinical evaluation in asthma (Example 4); assay type: in vivo, human; details: inhaled, 4, 8 or 20 mg/day, about six months
Method: Resveratrol is evaluated clinically for efficacy in treating asthma when administered pulmonarily. The methods of the following references are generally used in the evaluation of asthmatic disease: Wohl et al. (2000) N. Engl. J. Med. 343(15):1113-4; Agertoft et al. (2000) N. Engl. J. Med 343(15):1064-9. Patients with asthma are treated once or more per day with inhalator delivered pulmonary administered doses of resveratrol. Patients are divided randomly and blindly into approximately equal groups that receive either 0 (placebo), 4, 8, or 20 mg/day resveratrol in inhaled doses of 0, 1, 2, or 5 mg administered 4 times daily for about six months. Patients are medically monitored for clinical symptoms of asthma throughout the study, including frequency and severity of acute asthma attacks. […] In addition exhaled nitric oxide (NO) and carbon monoxide (CO) levels may be measured at more frequent intervals, such as every other week. Forced expiratory volume (FEV) and forced inspiratory volume (FIV) are also evaluated to measure airway patency as a direct measure of clinical morbidity and to determine correlation the histopathologic and other indicators of clinical disease, such as exhaled NO Immunhistopathologic examination of lung tissue biopsy samples taken at the same intervals as the blood samples are also examined for histopathologic evidence of extent and histology of inflammation.

Structure (SMILES): Oc1ccc(/C=C/c2cc(O)cc(O)c2)cc1 [Resveratrol, 3,5,4′-trihydroxystilbene]
- systemic side effects compared with doubling steroid dosage [1]: reduced systemic side effects compared with doubling steroid dosage
- efficacy as supplement to existing steroid therapy vs doubling inhaled steroid dose ([1]; steroid resistant asthma): as or more effective as supplements to existing steroid therapy for antiinflammatory treatment than doubling inhaled steroid dose
- efficacy in treating COPD (COPD patients): effective for treating COPD
- EC50 [2]: 111 ± 2.9 µM
- efficacy in treating asthma (Patients with asthma): effective for treating asthma
